Laboratory results reported in patent US10570129B2 (Zoetis Services LLC, priority 2015, dated 2020).
Like-named read-outs stand apart in the source and are kept apart here.

Key:
Haemonchus contortus L3 = assay: microbe, parasite or virus in culture; format: cell-based; settings: for minimal effective concentration: Haemonchus contortus, 96 h, read-out: HcL3 Minimal Effective Concentration (MEC)
D. immitis microfilariae = assay: Dirofilaria immitis, microfilariae (DiMF) in vitro motility assay; format: cell-based; settings: for minimal effective concentration: Dirofilaria immitis, 72 h, read-out: DiMF minimally effective dose (MEC)
[1] = decrease in microfilariae motility by subjective visual assessment, observed at 72 hours

For `O=C(NCc1ccnc(Cl)c1)n1c2c(c3cc(OC(F)(F)F)c(F)cc31)CN(C/C=C/c1ccc(Cl)cc1)CC2` [Example 495, (E)-2-(3-(4-chlorophenyl)allyl)-N-((2-chloropyridin-4-yl)methyl)-7-fluoro-8-(trifluoromethoxy)-1,2,3,4-tetrahydro-5H-pyrido[4,3-b]indole-5-carboxamide], the minimal effective concentration (Haemonchus contortus L3) was 1 µM and the minimal effective concentration (D. immitis microfilariae) was 10 µM.
`O=C(NCc1ccnc(Cl)c1)n1c2c(c3cc(OC(F)(F)F)c(Cl)cc31)CN(C/C=C/c1ccc(Cl)cc1)CC2` [Example 496, (E)-7-chloro-2-(3-(4-chlorophenyl)allyl)-N-((2-chloropyridin-4-yl)methyl)-8-(trifluoromethoxy)-1,2,3,4-tetrahydro-5H-pyrido[4,3-b]indole-5-carboxamide] showed a minimal effective concentration (Haemonchus contortus L3) of 1 µM and a minimal effective concentration (D. immitis microfilariae) of 5.7 µM.
`O=C(NCc1ccnc(Cl)c1)n1c2c(c3cc(OC(F)(F)F)c(Br)cc31)CN(C/C=C/c1ccc(Cl)cc1)CC2` [Example 497, (E)-7-bromo-2-(3-(4-chlorophenyl)allyl)-N-((2-chloropyridin-4-yl)methyl)-8-(trifluoromethoxy)-1,2,3,4-tetrahydro-5H-pyrido[4,3-b]indole-5-carboxamide] was tested, and the minimal effective concentration (Haemonchus contortus L3) was 1 µM and the minimal effective concentration (D. immitis microfilariae) was 5.7 µM.
With `O=C(NCc1ccnc(Cl)c1)n1c2c(c3cc(Br)c(C(F)(F)F)cc31)CN(C/C=C/c1ccc(Cl)cc1)CC2` [Example 498, (E)-8-bromo-2-(3-(4-chlorophenyl)allyl)-N-((2-chloropyridin-4-yl)methyl)-7-(trifluoromethyl)-1,2,3,4-tetrahydro-5H-pyrido[4,3-b]indole-5-carboxamide] the minimal effective concentration (Haemonchus contortus L3) was 1.8 µM and the minimal effective concentration (D. immitis microfilariae) was 5.7 µM.
`O=C(NCc1ccnc(Cl)c1)n1c2c(c3cc(Cl)c(OC(F)(F)F)cc31)CN(C/C=C/c1ccc(Cl)cc1)CC2` [Example 499, (E)-8-chloro-2-(3-(4-chlorophenyl)allyl)-N-((2-chloropyridin-4-yl)methyl)-7-(trifluoromethoxy)-1,2,3,4-tetrahydro-5H-pyrido[4,3-b]indole-5-carboxamide] was tested, and the minimal effective concentration (Haemonchus contortus L3) was 1.8 µM and the minimal effective concentration (D. immitis microfilariae) was > 100 µM.
For `O=C(NCc1ccnc(Cl)c1)n1c2c(c3cc(-n4ccccc4=O)ccc31)CN(C/C=C/c1ccc(Cl)cc1)CC2` [Example 500, (E)-2-(3-(4-chlorophenyl)allyl)-N-((2-chloropyridin-4-yl)methyl)-8-(2-oxopyridin-1 (2H)-yl)-1,2,3,4-tetrahydro-5H-pyrido[4,3-b]indole-5-carboxamide], the minimal effective concentration (Haemonchus contortus L3) was > 100 µM and the minimal effective concentration (D. immitis microfilariae) was 5.7 µM.
In the case of `O=C(NCc1ccnc(F)c1)n1c2c(c3cc(C4CC4)ccc31)CN(C/C=C/c1ccc(Cl)cc1)CC2` [Example 501, (E)-2-(3-(4-chlorophenyl)allyl)-8-cyclopropyl-N-((2-fluoropyridin-4-yl)methyl)-1,2,3,4-tetrahydro-5H-pyrido[4,3-b]indole-5-carboxamide], the minimal effective concentration (Haemonchus contortus L3) is reported as 3.3 µM and the minimal effective concentration (D. immitis microfilariae) is reported as 18.2 µM.
`N#Cc1cc2c(cc1OC(F)(F)F)c1c(n2C(=O)NCc2ccnc(Cl)c2)CCN(C/C=C/c2ccc(Cl)cc2)C1` [Example 502, (E)-2-(3-(4-chlorophenyl)allyl)-N-((2-chloropyridin-4-yl)methyl)-7-cyano-8-(trifluoromethoxy)-1,2,3,4-tetrahydro-5H-pyrido[4,3-b]indole-5-carboxamide] was tested, and the minimal effective concentration (Haemonchus contortus L3) was 18.2 µM and the minimal effective concentration (D. immitis microfilariae) was > 100 µM.
Work on `N#Cc1cc2c3c(n(C(=O)NCc4ccnc(Cl)c4)c2cc1OC(F)(F)F)CCN(C/C=C/c1ccc(Cl)cc1)C3` [Example 503, (E)-2-(3-(4-chlorophenyl)allyl)-N-((2-chloropyridin-4-yl)methyl)-8-cyano-7-(trifluoromethoxy)-1,2,3,4-tetrahydro-5H-pyrido[4,3-b]indole-5-carboxamide] yielded a minimal effective concentration (Haemonchus contortus L3) of 33 µM and a minimal effective concentration (D. immitis microfilariae) of 3.3 µM.
With `O=C(NCc1ccnc(Cl)c1)n1c2c(c3cc(N4CCCC4)ccc31)CN(C/C=C/c1ccc(Cl)c(F)c1)CC2` [Example 506, (E)-2-(3-(4-chloro-3-fluorophenyl)allyl)-N-((2-chloropyridin-4-yl)methyl)-8-(pyrrolidin-1-yl)-1,2,3,4-tetrahydro-5H-pyrido[4,3-b]indole-5-carboxamide] the minimal effective concentration (Haemonchus contortus L3) was 7.6 µM and the minimal effective concentration (D. immitis microfilariae) was > 100 µM.
Molecule `O=C(NCc1ccnc(Cl)c1)n1c2c(c3ccc(N4CCOCC4)cc31)CN(C/C=C/c1ccc(Cl)c(Cl)c1)CC2` [Example 508, (E)-N-((2-chloropyridin-4-yl)methyl)-2-(3-(3,4-dichlorophenyl)allyl)-7-morpholino-1,2,3,4-tetrahydro-5H-pyrido[4,3-b]indole-5-carboxamide] has a minimal effective concentration (Haemonchus contortus L3) of 1.6 µM and a minimal effective concentration (D. immitis microfilariae) of 9 µM.
For `O=C(NCc1ccnc(Cl)c1)n1c2c(c3ccc(N4CCOCC4)cc31)CN(C/C=C/c1ccc(Cl)c(F)c1)CC2` [Example 509, (E)-2-(3-(4-chloro-3-fluorophenyl)allyl)-N-((2-chloropyridin-4-yl)methyl)-7-morpholino-1,2,3,4-tetrahydro-5H-pyrido[4,3-b]indole-5-carboxamide], the minimal effective concentration (Haemonchus contortus L3) was 1 µM and the minimal effective concentration (D. immitis microfilariae) was 18.2 µM.
With `O=C(NCc1ccnc(Cl)c1)n1c2c(c3cc(N4CCSCC4)ccc31)CN(C/C=C/c1ccc(Cl)c(F)c1)CC2` [Example 510] the minimal effective concentration (Haemonchus contortus L3) was > 100 µM and the minimal effective concentration (D. immitis microfilariae) was > 100 µM.
With `O=C(NCc1ccnc(Cl)c1)n1c2c(c3cc(N4CCCSC4)ccc31)CN(C/C=C/c1ccc(Cl)c(Cl)c1)CC2` [Example 511, (E)-N-((2-chloropyridin-4-yl)methyl)-2-(3-(3,4-dichlorophenyl)allyl)-8-(1,3-thiazinan-3-yl)-1,2,3,4-tetrahydro-5H-pyrido[4,3-b]indole-5-carboxamide] the minimal effective concentration (Haemonchus contortus L3) was > 100 µM and the minimal effective concentration (D. immitis microfilariae) was > 100 µM.
`COc1ccc2c(c1)c1c(n2C(=O)NCc2ccnc(Cl)c2)CCN(C/C=C/c2ccc(Cl)cc2)C1` [Example 512, (E)-2-(3-(4-chlorophenyl)allyl)-N-((2-chloropyridin-4-yl)methyl)-8-methoxy-1,2,3,4-tetrahydro-5H-pyrido[4,3-b]indole-5-carboxamide] was tested, and the minimal effective concentration (Haemonchus contortus L3) was 1 µM and the minimal effective concentration (D. immitis microfilariae) was 10 µM.
`CCOc1ccc2c(c1)c1c(n2C(=O)NCc2ccnc(Cl)c2)CCN(C/C=C/c2ccc(Cl)cc2)C1` [Example 513, (E)-2-(3-(4-chlorophenyl)allyl)-N-((2-chloropyridin-4-yl)methyl)-8-ethoxy-1,2,3,4-tetrahydro-5H-pyrido[4,3-b]indole-5-carboxamide] showed a minimal effective concentration (Haemonchus contortus L3) of 7.6 µM and a minimal effective concentration (D. immitis microfilariae) of 3.3 µM.
Work on `CCOc1ccc2c(c1)c1c(n2C(=O)NCc2ccnc(Cl)c2)CCN(C/C=C/c2ccc(F)cc2)C1` [Example 514, (E)-N-((2-chloropyridin-4-yl)methyl)-8-ethoxy-2-(3-(4-fluorophenyl)allyl)-1,2,3,4-tetrahydro-5H-pyrido[4,3-b]indole-5-carboxamide] yielded a minimal effective concentration (Haemonchus contortus L3) of 5.7 µM and a minimal effective concentration (D. immitis microfilariae) of 5.7 µM.
`N#Cc1ccc2c3c(n(C(=O)NCc4ccnc(C5CC5)c4)c2c1)CCN(C/C=C/c1ccc(Cl)c(F)c1)C3` [Example 515, (E)-2-(3-(4-chloro-3-fluorophenyl)allyl)-7-cyano-N-((2-cyclopropylpyridin-4-yl)methyl)-1,2,3,4-tetrahydro-5H-pyrido[4,3-b]indole-5-carboxamide] gave a minimal effective concentration (Haemonchus contortus L3) of 1.8 µM and a minimal effective concentration (D. immitis microfilariae) of 13.5 µM.
For `O=C(NCc1ccnc(Cl)c1)N1c2ccc(Cl)cc2C2CN(C/C=C/c3ccc(Cl)cc3)CCC21` (stereo not shown) [Example 516, (E)-8-chloro-2-(3-(4-chlorophenyl)allyl)-N-((2-chloropyridin-4-yl)methyl)-1,2,3,4,4a,9b-hexahydro-5H-pyrido[4,3-b]indole-5-carboxamide], the “HcL3 Minimal Effective Concentration (MEC)” value (Haemonchus contortus L3) was 0.3 µM and the “DiMF minimally effective dose (MEC)” value (D. immitis microfilariae) was 10.0 µM.
`O=C(NCc1ccnc(Cl)c1)N1c2ccc(Cl)cc2C2CN(C/C=C/c3ccc(Cl)c(Cl)c3)CCC21` (stereo not shown) [Example 517, (E)-8-chloro-N-((2-chloropyridin-4-yl)methyl)-2-(3-(3,4-dichlorophenyl)allyl)-1,2,3,4,4a,9b-hexahydro-5H-pyrido[4,3-b]indole-5-carboxamide] was tested, and the “HcL3 Minimal Effective Concentration (MEC)” value (Haemonchus contortus L3) was 0.5 µM and the “DiMF minimally effective dose (MEC)” value (D. immitis microfilariae) was 10.0 µM.
In the case of “(E)-7,8-dichloro-N-((2-fluoropyridin-4-yl)methyl)-2-(3-(5-(trifluoromethyl)pyridin-2-yl)allyl)-1,2,3,4-tetrahydro-5H-pyrido[4,3-b]indole-5-carboxamide [Example 287]”, the “HcL3 Minimal Effective Concentration (MEC)” value (Haemonchus contortus L3) is reported as 0.2 µM and the “DiMF minimally effective dose (MEC)” value (D. immitis microfilariae; [1]) is reported as 3.3 µM.
In the case of “(E)-7-chloro-2-(3-(4-cyano-3-fluorophenyl)allyl)-N-((2-fluoropyridin-4-yl)methyl)-1,2,3,4-tetrahydro-5H-pyrido[4,3-b]indole-5-carboxamide [Example 225]”, the “HcL3 Minimal Effective Concentration (MEC)” value (Haemonchus contortus L3) is reported as 1.8 µM and the “DiMF minimally effective dose (MEC)” value (D. immitis microfilariae; [1]) is reported as 3.3 µM.
“(E)-8-cyano-2-(3-(2,4-difluorophenyl)allyl)-N-((2-(trifluoromethyl)pyridin-4-yl)methyl)-1,2,3,4-tetrahydro-5H-pyrido[4,3-b]indole-5-carboxamide [Example 129]” was tested, and the “HcL3 Minimal Effective Concentration (MEC)” value (Haemonchus contortus L3) was 0.05 µM and the “DiMF minimally effective dose (MEC)” value (D. immitis microfilariae; [1]) was 3.5 µM.
“(E)-9-chloro-2-(3-(4-chlorophenyl)allyl)-N-((2-chloropyridin-4-yl)methyl)-8-fluoro-1,2,3,4-tetrahydro-5H-pyrido[4,3-b]indole-5-carboxamide [Example 318]” was tested, and the “HcL3 Minimal Effective Concentration (MEC)” value (Haemonchus contortus L3) was 3.3 µM and the “DiMF minimally effective dose (MEC)” value (D. immitis microfilariae; [1]) was 5.7 µM.
For “(E)-N-((2-chloropyridin-4-yl)methyl)-2-(3-(3,4-dichlorophenyl)allyl)-8-(pyrrolidin-1-yl)-1,2,3,4-tetrahydro-5H-pyrido[4,3-b]indole-5-carboxamide [Example 507]”, the “HcL3 Minimal Effective Concentration (MEC)” value (Haemonchus contortus L3) was 10.0 µM and the “DiMF minimally effective dose (MEC)” value (D. immitis microfilariae; [1]) was 13.5 µM.
In the case of “(E)-N-((2-chloropyridin-4-yl)methyl)-2-(3-(3,4-dichlorophenyl)allyl)-9-methyl-1,2,3,4-tetrahydro-5H-pyrido[4,3-b]indole-5-carboxamide [Example 148]”, the “HcL3 Minimal Effective Concentration (MEC)” value (Haemonchus contortus L3) is reported as 5.7 µM and the “DiMF minimally effective dose (MEC)” value (D. immitis microfilariae; [1]) is reported as 10.0 µM.
